Assay results taken from patent US20230365514A1, “MACROCYCLIC COMPOUNDS” (NOVO NORDISK RESEARCH CENTRE OXFORD LIMITED, priority 2017, published 2023).
Where “and” joins values, the source holds several entries; their conditions need not be identical. Equal entries are not always repeated.

Assays:
[1] = ITC titration with D-glucose; type: binding; conditions: d-glucose in 10 mM phosphate buffer, 298 K (Table 6)
Protocol: ITC experiments were carried out at 298 K. Saccharide solutions were prepared in HPLC-grade water with 10 mM phosphate buffer solution (pH 7.4) and allowed to equilibrate overnight if necessary. The sample cell was charged with a known concentration of receptor solution in HPLC-grade water with 10 mM phosphate buffer solution at pH 7.4 (typically 50 µM - 200 µM). Then, aliquots (typically 1.0 µL) of carbohydrate solution were added and the evolution of heat was followed as a function of time. Heats of dilution were measured by injecting the same carbohydrate solution into HPLC-grade water with 10 mM phosphate buffer solution at pH 7.4, using identical conditions. For every addition, the heat of dilution was subtracted from the heat of binding using a MicroCal software programme implemented in ORIGIN 7.0. This gave an XY matrix of heat vs. total guest concentration. This matrix was then imported into a specially written Excel programme to fit the data to a 1:1 binding model to give a Ka. ΔG can be derived from Ka and thus ΔS can be derived from ΔH and ΔG using common thermodynamic equations. […] This method consistently produced more accurate fits than fitting the data to an S-curve, as in the MicroCal software (S-curves are typically not observed for binding constants below ~104 - 105 M^-1).

[2] = 1H NMR titration with D-glucose; type: binding; conditions: D2O; buffer differs by receptor (FIGS. 68-73, 77) (Table 6)
Protocol: ^1H-NMR titrations were performed on a Varian VNMR cryogenically cooled S600 spectrometer. Solutions of saccharides in D2O (99.9%), containing receptor at a known concentration to be used in the experiment, were prepared and allowed to equilibrate overnight before use if necessary. Aliquots were then added to an NMR tube containing a known concentration of receptor solution (typically 100 µM - 400 µM). The receptor concentration was therefore held constant while the carbohydrate concentration was increased. The sample tube was shaken after each addition and ^1H-NMR spectra were acquired at 298 K.
^1H-NMR titrations were performed on a Varian VNMR cryogenically cooled S600 spectrometer. Solutions of saccharides in D2O (99.9%), containing receptor at a known concentration to be used in the experiment, were prepared and allowed to equilibrate overnight before use if necessary. Aliquots were then added to an NMR tube containing a known concentration of receptor solution (typically 50 µM - 250 µM). The receptor concentration was therefore held constant while the carbohydrate concentration was increased. The sample tube was shaken after each addition, centrifuged and ^1H-NMR spectra were acquired at 298 K.
If the receptor bound saccharide slower than the NMR sample rate (“slow exchange”), the Ka was determined by analysing the NMR integral of a peak assigned to the Host-Guest complex. The variable X was defined as the integral of an isolated resonance of the complex (typically in the aromatic region) divided by the integral of all the related resonances (typically the whole aromatic region). As X is proportional to fraction of host in the bound state, the change in X could be plotted as a function of the guest concentration to give a curve which could be fitted to a 1:1 binding model to yield the association constant Ka. Mathematically, the fitting process is essentially identical to that employed for binding with fast exchange, except that the integral of a peak due to the complex replaces the chemical shift of a peak due to bound + unbound receptor. The calculation was performed using a non-linear least squares curve-fitting programme implemented within Excel. The programme yields binding constants Ka and limiting X (Xlim) as output. An estimated error for Ka was obtained from individual data points by assuming the determined Ka and Xlim.

Row | SMILES | Binding affinity for D-glucose (Ka), Determined by ITC [1] | Binding affinity for D-glucose (Ka), Determined by 1H-NMR [2]
1 | CCc1c2c(CC)c3c(CC)c1CNC(=O)Nc1cc(C(=O)NC(CCC(=O)NC(CCC(=O)[O-])(CCC(=O)[O-])CCC(=O)[O-])(CCC(=O)NC(CCC(=O)[O-])(CCC(=O)[O-])CCC(=O)[O-])CCC(=O)NC(CCC(=O)[O-])(CCC(=O)[O-])CCC(=O)[O-])ccc1NC(=O)NCc1c(OC)c(c(OC)c(c1OC)CNC(=O)Nc1ccc(C(=O)NC(CCC(=O)NC(CCC(=O)[O-])(CCC(=O)[O-])CCC(=O)[O-])(CCC(=O)NC(CCC(=O)[O-])(CCC(=O)[O-])CCC(=O)[O-])CCC(=O)NC(CCC(=O)[O-])(CCC(=O)[O-])CCC(=O)[O-])cc1NC(=O)NC3)CNC(=O)Nc1ccc(C(=O)NC(CCC(=O)NC(CCC(=O)[O-])(CCC(=O)[O-])CCC(=O)[O-])(CCC(=O)NC(CCC(=O)[O-])(CCC(=O)[O-])CCC(=O)[O-])CCC(=O)NC(CCC(=O)[O-])(CCC(=O)[O-])CCC(=O)[O-])cc1NC(=O)NC2.[Na+].[Na+].[Na+].[Na+].[Na+].[Na+].[Na+].[Na+].[Na+].[Na+].[Na+].[Na+].[Na+].[Na+].[Na+].[Na+].[Na+].[Na+].[Na+].[Na+].[Na+].[Na+].[Na+].[Na+].[Na+].[Na+].[Na+] [Receptor 13] | 1310 M⁻¹ and 1310 ± 33 M⁻¹ | 
2 | CCc1c2c(CC)c3c(CC)c1CNC(=O)Nc1cc(C(=O)[O-])c(C(=O)[O-])cc1NC(=O)NCc1c(CC)c(c(CC)c(c1CC)CNC(=O)Nc1cc(C(=O)[O-])c(C(=O)[O-])cc1NC(=O)NC3)CNC(=O)Nc1cc(C(=O)[O-])c(C(=O)[O-])cc1NC(=O)NC2.[Na+].[Na+].[Na+].[Na+].[Na+].[Na+] [Receptor 11, Hexa-carboxylate Hexa-urea Macrocycle] |  | ~ 2000 M^-1
3 | CCc1c2c(CC)c3c(CC)c1CNC(=O)Nc1ccc(C(=O)NCCOCCOCCOCCN)cc1NC(=O)NCc1c(CC)c(c(CC)c(c1CC)CNC(=O)Nc1cc(C(=O)NCCOCCOCCOCCN)ccc1NC(=O)NC3)CNC(=O)Nc1cc(C(=O)NCCOCCOCCOCCN)ccc1NC(=O)NC2 [Receptor 10] |  | 481 ± 57 M⁻¹
4 | Cc1c2c(C)c3c(C)c1CNC(=O)Nc1ccc(C(=O)NC(CCC(=O)NC(CCC(=O)O)(CCC(=O)O)CCC(=O)O)(CCC(=O)NC(CCC(=O)O)(CCC(=O)O)CCC(=O)O)CCC(=O)NC(CCC(=O)O)(CCC(=O)O)CCC(=O)O)cc1NC(=O)NCc1c(C)c(c(C)c(c1C)CNC(=O)Nc1cc(C(=O)NC(CCC(=O)NC(CCC(=O)O)(CCC(=O)O)CCC(=O)O)(CCC(=O)NC(CCC(=O)O)(CCC(=O)O)CCC(=O)O)CCC(=O)NC(CCC(=O)O)(CCC(=O)O)CCC(=O)O)ccc1NC(=O)NC3)CNC(=O)Nc1cc(C(=O)NC(CCC(=O)NC(CCC(=O)O)(CCC(=O)O)CCC(=O)O)(CCC(=O)NC(CCC(=O)O)(CCC(=O)O)CCC(=O)O)CCC(=O)NC(CCC(=O)O)(CCC(=O)O)CCC(=O)O)ccc1NC(=O)NC2 [Receptor 8] | 4210 M⁻¹ and 4210 ± 73 M⁻¹ | 
5 | CCc1c2c(CC)c3c(CC)c1CNC(=O)Nc1ccc(C(=O)NC(CCC(=O)NC(CCC(=O)[O-])(CCC(=O)[O-])CCC(=O)[O-])(CCC(=O)NC(CCC(=O)[O-])(CCC(=O)[O-])CCC(=O)[O-])CCC(=O)NC(CCC(=O)[O-])(CCC(=O)[O-])CCC(=O)[O-])cc1NC(=O)NCc1c(C)c(c(C)c(c1C)CNC(=O)Nc1cc(C(=O)NC(CCC(=O)NC(CCC(=O)[O-])(CCC(=O)[O-])CCC(=O)[O-])(CCC(=O)NC(CCC(=O)[O-])(CCC(=O)[O-])CCC(=O)[O-])CCC(=O)NC(CCC(=O)[O-])(CCC(=O)[O-])CCC(=O)[O-])ccc1NC(=O)NC3)CNC(=O)Nc1cc(C(=O)NC(CCC(=O)NC(CCC(=O)[O-])(CCC(=O)[O-])CCC(=O)[O-])(CCC(=O)NC(CCC(=O)[O-])(CCC(=O)[O-])CCC(=O)[O-])CCC(=O)NC(CCC(=O)[O-])(CCC(=O)[O-])CCC(=O)[O-])ccc1NC(=O)NC2.[Na+].[Na+].[Na+].[Na+].[Na+].[Na+].[Na+].[Na+].[Na+].[Na+].[Na+].[Na+].[Na+].[Na+].[Na+].[Na+].[Na+].[Na+].[Na+].[Na+].[Na+].[Na+].[Na+].[Na+].[Na+].[Na+].[Na+] [Receptor 14] |  | 14926 ± 1566 M⁻¹
